Laboratory results as given in a melting point compilation (Tetko et al.; mined from patent text by program, amines drawn as free bases though some values may be those of a salt).

Row | SMILES | melting point [°C]
1 | Cc1ccc(-c2cc(-c3ccc(F)cc3)c(C(=O)NCc3ccc(C(=O)NO)cc3)[nH]2)cc1 | 213 to 215
2 | CC(=O)SCC(C)C(=O)N(CC(=O)O)Cc1ccco1 (stereo not drawn) | 140 to 141
3 | CCOc1ccc(O)cc1C=O | 108 to 109
4 | COc1ccc(OC)c(C(=O)Nc2ccc(N3CCOCC3)cc2C(C)=O)c1 | 172 to 174
5 | CC(C)(C)n1nnc(Cc2ccc(CCC(=O)O)cc2)n1 | 139 to 141
6 | CCOC(=O)c1c(-c2ccccc2C)c2cc(Cl)ccc2n(C)c1=O | 113 to 114
7 | COc1cc2c(cc1OC)C(c1ccc(SC(F)(F)F)cc1)CNCC2 (stereo not drawn) | 95
8 | CC(C)(C)C(=O)Nc1ccc(C(F)(F)F)cc1 | 154 to 158
9 | CCCOc1ccc2c(c1)C(=O)C=C2c1ccc2c(c1)OCO2 | 90 to 93
10 | CC(C)C(=O)N1CCC(C(CS(=O)(=O)c2ccc(Oc3ccc(OC(F)(F)F)cc3)cc2)N(O)C=O)CC1 (stereo not drawn) | 139 to 140
11 | Cc1coc(NC(=O)C2=C(O)c3c(c4ccccc4n3C)S(=O)(=O)N2C)n1 | 128
12 | CC1=NC(NC(=O)Nc2cccc(C)n2)C(=O)N(CC(=O)N2CC3CCC(CC3)C2)c2c(C)cccc21 (stereo not drawn) | 151 to 152
13 | CC(C)OC(=O)C1=C(c2ccccc2)C(c2ccccc2)OC1=O (stereo not drawn) | 120 to 122
14 | Cc1ccc2c(n1)N(CCCN(C(C)C)C(C)C)c1ccccc1N(C)C2=O | 118 to 119
15 | Cc1ccc(OC(=O)c2cccc(C(=O)Oc3ccc(C)cc3-n3nc4ccccc4n3)c2)c(-n2nc3ccccc3n2)c1 | 115 to 118
16 | Cc1nc(-c2ccc(C=CC3(O)CN4CCC3CC4)cc2)no1 (stereo not drawn) | 188 to 189
17 | O=[N+]([O-])C(Sc1ccccc1)=C1NCCCS1 | 144 to 147
18 | CN(C)c1noc(-c2ncn3c2COc2cc(F)ccc2-3)n1 | 239 to 240
19 | NS(=O)(=O)c1ccccc1CSc1ncccn1 | 128 to 130
20 | CC(Oc1ccc(CNc2ccc(Cl)cc2)cc1)C(=O)O (stereo not drawn) | 148 to 149
21 | COC(=O)CCCCCCCCCCCCC1=C(C)C(=O)C(OC)=C(OC)C1=O | 54
22 | N#Cc1ccc(-c2cn(-c3ccc(C#N)cc3)c(SCc3ccccn3)n2)cc1 | 164 to 170

Row | SMILES | melting point [°C]
23 | O=C1Cc2ccccc2C(c2ccccc2F)N1 (stereo not drawn) | 167 to 169
24 | N#Cc1c[nH]c(-c2ccccc2F)c1 | 158 to 160
25 | COC(=O)CN1C(=S)CN=C(c2ccccc2Cl)c2ccccc21 | 183 to 184
26 | COCC[C@H]1CN(C2=Nc3ccccc3Nc3ccc(C(F)(F)F)cc32)CCN1 | 71 to 82
27 | CCc1ccc(S(=O)(=O)n2c(CCC(=O)O)cc3cc(Cl)ccc32)cc1 | 130 to 133
28 | CN(C)CCCOc1ccnc2cc([N+](=O)[O-])ccc12 | 146 to 149
29 | Cc1ccc(-c2cccc(/C=C/C(=O)Nc3ccc(CN4CCCCC4CO)cc3)c2)cc1 (stereo not drawn) | 137 to 139
30 | CN(C)S(=O)(=O)c1ccc2c(c1)C(=O)c1ccccc1CC2 | 122 to 124
31 | CCOC(=O)Cn1c(C(=O)NCc2nnc3n2-c2sc(CC)cc2C(c2ccccc2Cl)=NC3)cc2ccccc21 | 215 to 217
32 | O=S(=O)(O)NCc1ccncc1 | 227 to 228
33 | Cc1ccc(S(=O)(=O)OCC2Cc3cccc(-c4ccc(F)cc4)c3O2)cc1 (stereo not drawn) | 83 to 86
34 | CCOC(=O)c1ncn2c1CN(C)C(=O)c1cc(C(F)(F)F)ccc1-2 | 179 to 180
35 | O=C(N1CCN(Cc2ccccc2)CC1)N1CC(Oc2ccc(Br)cc2)C1 | 133 to 135
36 | CC(O)(C#CCCO)c1ccc(-c2ccc(Cl)cc2)cc1 (stereo not drawn) | 105
37 | O=C(O)C1CN(c2ccc(-c3noc(CN4C(=O)c5ccccc5C4=O)n3)cc2)C(=O)O1 (stereo not drawn) | 130 to 135
38 | CCN1C(=O)CCCc2cc(Nc3ncc(Cl)c(Nc4ccccc4S(=O)(=O)N(C)C)n3)c(OC)cc21 | 147 to 153
39 | Cn1cc(C2=CCN(CCCn3nnc4ccccc4c3=O)CC2)c2ccccc21 | 70
40 | CC(C)(C)c1cc(C(=O)OCCc2ccc([N+](=O)[O-])cc2)cc(C(C)(C)C)c1O | 124
41 | N#CC=Cc1ccc(Cl)s1 | 41 to 43
42 | CCCCCCCNC(=O)Nc1ccc([N+](=O)[O-])cc1C(=O)NC1CCN(C(c2ccccc2)c2ccccc2)CC1 | 165 to 166
43 | COc1c(C)c(C)c(OC)c(C(CCCC(=O)O)c2cccnc2)c1C (stereo not drawn) | 82 to 84
44 | COc1cc(OC)c(NC(=O)C(c2ccccc2)n2nnc(C(c3ccccc3)c3ccccc3)n2)c(OC)c1 (stereo not drawn) | 114 to 117

Row | SMILES | melting point [°C]
45 | O=C(O)c1ccc2c(c1)Sc1ccccc1C=C2 | 251 to 254
46 | CN1CCCc2ccc(NC(=O)c3cc4cc(F)ccc4n3Cc3cccc(F)c3)cc21 | 159 to 160
47 | CCC(=O)OC1(c2ccccc2)CCN(CCN2CNC(=O)c3ccccc32)CC1 | 141 to 144
48 | CCC(Oc1cccc(C(F)(F)F)c1Cl)C1=NCCN1 (stereo not drawn) | 102 to 103
49 | COc1ccc(C(Sc2ccccc2N)C(O)C(=O)O)cc1 (stereo not drawn) | 167 to 168
50 | COc1ccc(-c2coc3cc(OCc4ccccc4)ccc3c2=O)cc1 | 181 to 183
51 | CC(OCc1cc2cc(Cl)ccc2n1S(=O)(=O)c1ccc2c(c1)OCCN2C)C(=O)O (stereo not drawn) | 68
52 | COC(=O)C1=C(NC(=O)NC2CCCCC2)CSC1 | 154 to 155
53 | CCOC(=O)n1nc(S(=O)(=O)Nc2c(Cl)cccc2Cl)nc1NC | 202 to 203
54 | COc1ccc(C)c(NCc2ccccc2)c1 | 81 to 82
55 | CN(C)C=Nc1nc(Cl)c(N=CN(C)C)c(Cl)n1 | 116 to 119
56 | COCCSc1cc(N)ncn1 | 78 to 80
57 | CCc1nn2ccccc2c1[N+](=O)[O-] | 118 to 121
58 | COc1ccc(C(=O)NCCc2ccc(-c3ccc(O)cc3)cc2)cc1OC | 170
59 | CCOCCn1c(C2CCN(C)C(c3ccc(C(C)(C)C)cc3)C2)nc2ccccc21 (stereo not drawn) | 51 to 53
60 | CCOc1ccc(C(c2ccc(C(C)CC)cc2)C(CC)[N+](=O)[O-])cc1 (stereo not drawn) | 89 to 90
61 | CCn1ncc2nc(C(=O)NC)c(-c3ccccc3)nc21 | 165 to 166
62 | Cc1ccc(N2C(=O)N(CC(=O)Nc3c(C(C)C)cccc3C(C)C)C(=O)C23CCC(O)CC3)cc1 (stereo not drawn) | 142 to 144
63 | CCn1cc(-c2nc(C(N)=O)c(N)nc2-c2ccccc2)ccc1=O | > 250
64 | O=C1c2ccccc2C(=O)N1C(CCCBr)c1ccccc1 (stereo not drawn) | 88 to 91
65 | COC(=O)C(Cc1ccc(C#N)cc1)C(=O)c1ccc(C#N)cc1 (stereo not drawn) | 154 to 157

Further lines, results first:

Row | melting point [°C] | SMILES
66 | 78 to 79 | CCOC(=O)CCCCCCCn1c(-c2ccccc2)c(-c2ccccc2)[nH]c1=O
67 | 197 to 198 | CCOc1n[nH]cc1C(=O)NCc1ccc(Cl)cc1Cl
68 | 161 to 162 | COc1ccc(N2CCOCC2)c2sc(-c3ncc(-c4csc5ccccc45)[nH]3)nc12
69 | 133 to 135 | COC(=O)c1ccc2c(-c3ccccc3)cc(=O)oc2c1
70 | 158 to 160 | COC(=O)[C@H](CO)NC(=O)c1ncn2c1CN(C)C(=O)c1sccc1-2
71 | 162 to 163 | COCC1=C(C(=O)OC)C(c2ccc(Br)cc2)C(C(=O)OC)=C(COC)N1
72 | 169 to 172 | Cc1ccc(C2c3c(C)c(Br)c(C)c(C4OCCO4)c3OC2(C)C)cc1 (stereo not drawn)
73 | 152 to 154 | CCc1cc(NCc2ccc(-c3ccccc3C#N)cc2)n2ncc(Cl)c2n1
74 | 227 to 228 | COC(=O)c1nc2cc(Cl)c(Cl)c(Cl)c2c(O)c1C(=O)OC
75 | 90 to 105 | O=C(O)C1C(C=C(Cl)Cl)C12CCCC2 (stereo not drawn)
76 | 83 to 83.5 | COc1ccc(C2=NCCc3c(C)cccc32)cc1
77 | 143 to 144 | C=CCOc1cccc2nn(C)c(S(N)(=O)=O)c12
78 | 99.7 to 105 | CNC(=O)N(Cc1ccc(C)c(C)c1)NC(=O)OC(C)(C)C
79 | 328 to 330 | Nc1nc(N)c2c(ccc3c2ccn3-c2ccncc2)n1
80 | 214 to 215 | O=[N+]([O-])c1cc(C(F)(F)F)cc([N+](=O)[O-])c1P(=O)(c1ccccc1)c1ccccc1
81 | 192 to 193 | NC(=O)c1c(Cl)c(-c2ccccc2)n2c1CN(S(=O)(=O)c1ccc(Cl)c(Cl)c1)CC2
82 | 243 to 246 | CC1(C)CC(Nc2nc(NC3CC(C)(C)N(O)C(C)(C)C3)nc(N(C3CC(C)(C)N(O)C(C)(C)C3)C3CC(C)(C)N(O)C(C)(C)C3)n2)CC(C)(C)N1O

Row | melting point [°C] | SMILES
83 | 97.7 to 98.1 | CC(c1ccc2c(c1)C(=O)c1ccccc1C2=O)N1CCNCC1 (stereo not drawn)
84 | 81 to 82 | CCOC(=O)CCc1cn(Cc2ccc(OCc3csc(-c4ccccn4)n3)cc2)cc1-c1ccccc1
85 | 158 to 160 | N#Cc1c(N2CCCC2)cc(-c2ccccc2)c2c1-c1ccccc1C2
86 | 211 to 213 | Cc1cccc(C(=O)Nc2nc(=O)c3ccccc3[nH]2)c1
87 | 161 to 162 | CCOC(=O)c1sc2nc(C(C)C)ccc2c1N
88 | 212 to 213 | O=C(N[C@@H](Cc1ccc(C(F)(F)F)cc1)[C@H](O)c1ccc(F)cc1)c1ccc(C(F)F)c2ccccc12
89 | 73 to 75 | COc1ccc(C(Cc2ccc(C(N)=O)cc2)c2ccccc2)cc1OC1CCCC1 (stereo not drawn)
90 | 140 to 141 | O=Cc1cn(Cc2ccc3cc(OCc4ccccc4)ccc3c2)cc1-c1ccccc1
91 | 93 to 95 | CC=C1c2ccccc2CC(=O)c2ccccc21
92 | 212 to 213 | CCn1c(C#N)ccc1-c1ccc2c(c1)C(C)(C)OC(=S)N2
93 | 60 to 61 | COc1ccc2cc(Cc3ccccc3)sc2c1
94 | 107 to 113 | COc1cc(OC(C)C)ccc1/C=C/c1cc(/C=C/c2ccc3cc[nH]c3c2)n[nH]1
95 | 204 to 206 | Cc1c(N2CC[C@H](N(C)C)C2)c(F)c(N)c2c(=O)c(C(=O)O)cn(C3CC3)c12
96 | 67 to 68 | CCCCCCCCNC(=O)ON=C(Cc1ccccc1)C1=CC(=O)C(C)(C)O1
97 | 254 | N#Cc1ncn2c(C(F)(F)F)cc(-c3ccncc3)nc12
98 | 76 to 77 | COc1ccc2c(c1)OC(=O)N(C1CCCCC1)C2
